Data as given in ChEMBL document CHEMBL1909046, “DrugMatrix in vitro pharmacology data”.

How the values were obtained:
[1] = DRUGMATRIX: Potassium Channel [KATP] radioligand binding (ligand: [3H] Glyburide); format: cell membranes, Membrane; details: hit-t15; Not Active = under 50% inhibition at 10 µM
[2] = target: T1, Vasoactive intestinal polypeptide receptor 1 (Homo sapiens, UniProt P32241); format: cell membranes, Membrane; details: ht-29; further: in other assays of this panel Not Active means under 50% inhibition at 10 µM
T1 sequence (P32241 whole entry): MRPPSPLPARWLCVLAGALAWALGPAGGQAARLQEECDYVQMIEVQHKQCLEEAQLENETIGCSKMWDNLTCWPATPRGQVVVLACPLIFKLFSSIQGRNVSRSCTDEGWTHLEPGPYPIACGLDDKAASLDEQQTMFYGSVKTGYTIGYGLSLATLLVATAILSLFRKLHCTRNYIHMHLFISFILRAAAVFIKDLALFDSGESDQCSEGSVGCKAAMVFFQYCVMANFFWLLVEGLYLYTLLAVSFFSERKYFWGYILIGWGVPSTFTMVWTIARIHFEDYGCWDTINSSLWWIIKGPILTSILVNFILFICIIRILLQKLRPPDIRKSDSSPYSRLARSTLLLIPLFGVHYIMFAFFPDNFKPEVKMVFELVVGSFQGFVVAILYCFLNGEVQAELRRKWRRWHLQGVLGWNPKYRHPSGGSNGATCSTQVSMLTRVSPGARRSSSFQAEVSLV

Cytochrome P450 2C9 = Cytochrome P450 2C9 (Homo sapiens, UniProt P11712); details: bti-tn-5b1-4; further: in other assays of this panel Not Active means under 50% inhibition at 10 µM
Chain of Cytochrome P450 2C9 (P11712 whole entry): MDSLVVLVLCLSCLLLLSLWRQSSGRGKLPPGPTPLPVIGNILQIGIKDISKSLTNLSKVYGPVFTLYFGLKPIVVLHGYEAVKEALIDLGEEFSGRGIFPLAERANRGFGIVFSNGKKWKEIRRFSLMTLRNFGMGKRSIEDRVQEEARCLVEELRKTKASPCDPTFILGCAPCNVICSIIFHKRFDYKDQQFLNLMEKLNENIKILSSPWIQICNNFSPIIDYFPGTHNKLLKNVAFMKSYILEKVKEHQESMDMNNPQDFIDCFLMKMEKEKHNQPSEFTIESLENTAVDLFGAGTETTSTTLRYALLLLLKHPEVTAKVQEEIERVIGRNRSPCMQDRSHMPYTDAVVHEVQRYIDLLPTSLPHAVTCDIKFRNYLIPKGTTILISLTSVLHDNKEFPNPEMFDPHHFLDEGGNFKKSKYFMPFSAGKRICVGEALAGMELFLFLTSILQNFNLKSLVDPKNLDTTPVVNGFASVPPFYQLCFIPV

Cytochrome P450 2C19 = Cytochrome P450 2C19 (Homo sapiens, UniProt P33261); details: bti-tn-5b1-4; further: in other assays of this panel Not Active means under 50% inhibition at 10 µM
Chain of Cytochrome P450 2C19 (P33261 whole entry): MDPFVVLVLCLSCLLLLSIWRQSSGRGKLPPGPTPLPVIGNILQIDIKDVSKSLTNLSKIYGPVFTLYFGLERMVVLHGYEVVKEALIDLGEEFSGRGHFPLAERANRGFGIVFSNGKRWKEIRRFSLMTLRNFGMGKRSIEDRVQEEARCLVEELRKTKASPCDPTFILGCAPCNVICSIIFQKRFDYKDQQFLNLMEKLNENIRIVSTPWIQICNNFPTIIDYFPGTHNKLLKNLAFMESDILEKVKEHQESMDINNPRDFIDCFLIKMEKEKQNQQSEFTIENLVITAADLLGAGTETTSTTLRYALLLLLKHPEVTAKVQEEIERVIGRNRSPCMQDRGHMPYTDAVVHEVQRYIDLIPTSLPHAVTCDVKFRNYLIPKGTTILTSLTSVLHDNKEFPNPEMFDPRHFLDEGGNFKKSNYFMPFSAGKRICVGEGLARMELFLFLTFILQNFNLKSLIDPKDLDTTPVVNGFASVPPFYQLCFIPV

Melanocortin receptor 5 = Melanocortin receptor 5 (Homo sapiens, UniProt P33032); format: cell membranes, HEK293, Membrane; details: hek293; further: in other assays of this panel Not Active means under 50% inhibition at 10 µM
Chain of Melanocortin receptor 5 (P33032 whole entry): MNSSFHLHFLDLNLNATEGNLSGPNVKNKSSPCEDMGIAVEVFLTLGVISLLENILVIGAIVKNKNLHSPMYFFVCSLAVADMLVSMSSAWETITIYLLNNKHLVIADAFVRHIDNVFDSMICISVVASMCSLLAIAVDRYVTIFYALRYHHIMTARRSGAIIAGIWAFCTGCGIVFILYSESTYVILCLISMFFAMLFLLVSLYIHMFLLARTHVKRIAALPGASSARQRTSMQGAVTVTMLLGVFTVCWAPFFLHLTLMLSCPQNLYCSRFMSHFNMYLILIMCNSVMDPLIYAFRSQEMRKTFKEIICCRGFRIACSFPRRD

[3] = DRUGMATRIX: Sigma2 radioligand binding (ligand: [3H] Ifenprodil); format: cell membranes, Rattus norvegicus, Wistar, Brain, Membrane; details: Not Active = under 50% inhibition at 10 µM
[4] = target: Aldo-keto reductase family 1 member B1 (Rattus norvegicus, UniProt P07943); format: tissue-based, Lens of camera-type eye

NC1CCN(c2nc3c(cc2F)c(=O)c(C(=O)O)cn3-c2ccc(F)cc2F)C1 (stereo not given) [TOSUFLOXACIN]
Not Active: IC50 [1] | Ki [1] | IC50 [2] | IC50 (Cytochrome P450 2C9) | Ki (Cytochrome P450 2C9) | IC50 (Cytochrome P450 2C19) | Ki (Cytochrome P450 2C19) | IC50 (Melanocortin receptor 5) | IC50 [3] | Ki [3] | IC50 [4]

CC(c1cc2ccccc2s1)N(O)C(N)=O (stereo not given) [ZILEUTON]
Not Active: IC50 [1] | Ki [1] | IC50 [2] | IC50 (Cytochrome P450 2C9) | Ki (Cytochrome P450 2C9) | IC50 (Cytochrome P450 2C19) | Ki (Cytochrome P450 2C19) | IC50 (Melanocortin receptor 5) | IC50 [3] | Ki [3] | IC50 [4]

MANGANESE CHLORIDE ANHYDROUS
Not Active: IC50 [1] | Ki [1] | IC50 [2] | Ki [2] | IC50 (Cytochrome P450 2C9) | Ki (Cytochrome P450 2C9) | IC50 (Cytochrome P450 2C19) | Ki (Cytochrome P450 2C19) | IC50 (Melanocortin receptor 5) | Ki (Melanocortin receptor 5) | IC50 [3] | Ki [3] | IC50 [4] | Ki [4]

SODIUM ORTHOVANAD
Not Active: IC50 [1] | Ki [1] | IC50 [2] | Ki [2] | IC50 (Cytochrome P450 2C9) | Ki (Cytochrome P450 2C9) | IC50 (Cytochrome P450 2C19) | Ki (Cytochrome P450 2C19) | IC50 (Melanocortin receptor 5) | Ki (Melanocortin receptor 5) | IC50 [3] | Ki [3] | IC50 [4] | Ki [4]
